In patent publication EP4289427A1, “DIHYDRO[1,8]NAPHTHYRIDIN-7-ONE AND PYRIDO[3,2-B][1,4]OXAZIN-3-ONE FOR USE IN TREATING CANCER, AND METASTASES IN PARTICULAR” (Anagenesis Biotechnologies, priority 2022, dated 2023):

How the values were obtained:
[1] = test system: Src kinase family; experiment: Human phospho-kinase array in RD cells; format: cell-based; settings: 1 hour at its IC50, Figure 4
Description: Inhibition of kinases can be observed by quantifying both their phosphorylation levels and the phosphorylation level of downstream proteins in their pathways.
RD cells were cultured in vitro and expanded for 4 days prior to the experiments (see example 3.1 and table 6a for details). The assay was performed using the human phospho-kinase array kit (cat.no. ARY003C from R&D Systems), according to the manufacturer's instructions. The RD cells were treated with compound #032 for 1 hour at its IC50 (previously defined) and lysed with lysis buffer supplemented with aprotinin, leupeptin and pepstatin. The total protein extract was titrated using a micro-BCA kit (cat. no. 23235 from Thermofisher Scientific). The array membranes were blocked and incubated overnight at 4 °C with 500 µg of total protein. Then, the detection antibodies were added for 2 hours followed by the HRP-conjugated Streptavidin solution for 30 minutes. The chemiluminescent signal was finally developed by incubating the membranes with the chemi-reagent mix and placed in the Fusion-FX acquisition system (Vilber Instruments). Data were analyzed using ImageJ software (Wayne Rasband; NIH).

[2] = test system: MDA-MB-231 cells; experiment: Cytotoxicity assay (CellTiter-Glo 2.0) on MDA-MB-231 cells; format: cell-based, Human; settings: incubation 3 days
In short: (§1)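 Viability read-out: ATP-based luminescence (CellTiter-Glo 2.0, 10 min, RT, dark) after compound exposure of freshly seeded cells for a cell-line-specific duration; relative IC50 derived from viability.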

[3] = test system: RD cells; experiment: Cytotoxicity assay (CellTiter-Glo 2.0) on RD cells; format: cell-based, Human; settings: for IC50: Homo sapiens
In short: as §1

[4] = test system: 4T1 cells; experiment: Cytotoxicity assay (CellTiter-Glo 2.0) on 4T1 cells; format: cell-based, Mouse; settings: incubation 2 days
In short: as §1

[5] = test system: MDA-MB-231 cells; experiment: Scratch (wound healing) assay, cell migration; format: cell-based, Human; settings: 24 hours, Figure 1
Description: Cell migration is involved in several pathological cancer processes such as tumor invasion, neoangiogenesis and metastasis. Scratch (or wound healing) assay is a method to study two-dimensional cell migration in vitro. It is based on the observation that cells growing in a monolayer migrate to reestablish cell contacts after a mechanical scratch wound.
The MDA-MB-231 cells were seeded into a 24-well plate and grown to confluent density. A scrape was made in each well using a pipette tip. Then, the cells monolayers were incubated for 2 hours with 5 µg/ml mitomycin C to stop cell proliferation. The cells were treated with the compounds to be tested for 24 hours. The cells were stained using CellMask Green actin tracking stain (cat.no. A57246 from Fisher Scientific) at time zero and at endpoint. Pictures were acquired using a fluorescence microscope (IXM from Molecular Device). The scratch area was measured with the ImageJ software. The recovery of the scratch area was calculated as a percentage of the scratch area at time zero.

[6] = test system: HUVECs; experiment: Tube formation assay (anti-angiogenic activity); format: cell-based, human; settings: incubation 16 to 18 hours
In short: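 HUVECs plated at 5000 cells/well on reduced growth factor basement membrane matrix, then exposed to compounds for 16 to 18 hours at 37°C. Cells stained with calcein-AM; tube networks imaged by confocal fluorescence microscopy and quantified.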

[7] = test system: EoL-1 cells; experiment: Cytotoxicity assay (CellTiter-Glo 2.0) on EoL-1 cells; format: cell-based, Human; settings: incubation 1 day
In short: as §1

[8] = test system: 4T1 cells; experiment: Colony forming (clonogenic) assay; format: cell-based, Mouse; settings: 6 days of treatment, Figure 2
Description: Cancer stem cells are characterized by their ability to undergo virtually unlimited divisions. Colony forming assay (or clonogenic assay) is an in vitro assay designed to assess capability of single cells to grow into large colonies through clonal expansion.
4T1 cells were seeded at a density of 500 cells per well of six-well plates in 4T1 medium. Compounds to be tested were added 24 hours after seeding. After 6 days of treatment, the cells were fixed in 4% PFA and stained with 1% aqueous solution of crystal violet. Pictures of the entire wells were acquired, and the area of the positives colonies was evaluated by ImageJ software (Wayne Rasband; NIH).

[9] = test system: RD cells; experiment: Differentiation of RD cells into myotubes (alpha-actinin staining); format: cell-based, Human; settings: 7 days, Figure 3
Description: RD cells are cancer cells of muscle origin that arose from myogenic precursors that fail to complete muscle differentiation. One strategy to stop their progression is to differentiate them into myotubes.
To allow differentiation, RD cells were seeded at a density of 3500 cells/well in a 384-well plate coated with collagen type I, in DMEM (4,5g/L glucose) with L-Gln (cat.no. 41965-039 from Gibco) supplemented with 5% of knockout serum replacement (cat.no. 10828-028 from Gibco), 1% PenStrep (Gibco), 1% MEM NEAA (Gibco) and 0.1 mM 2-mercaptoethanol (Gibco) (hereafter "K5 medium"). Compounds to be tested were then added onto the cells and incubated for 7 days at 37°C. On day 7, cells were fixed with 4% paraformaldehyde solution and immunostained for α-actinin (cat.no. EA-53 from Sigma, at 1/30000).

[10] = test system: 4T1 cells; experiment: Epithelial-mesenchymal transition marker expression by qRT-PCR; format: cell-based, Mouse; parameters: key: ↗: increased expression; ↘: decreased expression; =: unchanged expression levels; settings: 24 hours, expression normalized against RPL13
Excerpt: The epithelial-mesenchymal transition (hereafter "EMT") is a process by which epithelial cells lose their cell polarity and cell-cell adhesion while gaining migratory and invasive properties to become mesenchymal stem cells. EMT is commonly measured by quantifying both epithelial and mesenchymal marker's expression by quantitative reverse-transcription polymerase chain reaction (hereafter "qRT-PCR"). EMT inhibition is observed when epithelial markers are stable or increased while mesenchymal markers are decreased.
4T1 cells were treated with compounds to be tested or DMSO for 24 hours. 4T1 cells were then harvested directly in NucleoZol lysis buffer (cat. no. 740404.200 from Macherey-Nagel), according to the manufacturer's instructions. Total RNA was extracted using the NucleoSpin RNA set for NucleoZol (cat. no. 740406.50 from Macherey-Nagel). The quantity and purity of RNA was determined using a Quickdrop (Molecular Devices). RT-PCR was performed on 500 ng total RNA using iScript gDNA clear cDNA synthesis Kit (cat.no. 1725035 from Biorad). The qPCR was run on a QuantStudio 5 real time thermocycler (Applied Biosystems), with PowerUp SYBR Green Master Mix (cat.no. A25742 from Fisher Scientific) and the primers listed in Table 16.
Expression data of EMT markers have been normalized against expression data of the housekeeping gene RPL13.

With CSc1cc(Oc2ccnc3c2CCC(=O)N3)ccc1NC(=O)Nc1cc(C(C)(C)C)nn1-c1ccc(C)nc1 [Compound 032, 1-[5-tert-butyl-2-(6-methyl-3-pyridyl)pyrazol-3-yl]-3-[2-methylsulfanyl-4-[(7-oxo-6,8-dihydro-5H-1,8-naphthyridin-4-yl)oxy]phenyl]urea] the “phosphorylation of members of the Src kinase family and their downstream proteins” value [1] was “decreased phosphorylation”, the IC50 ([2]; Homo sapiens, 72 h) was < 1 µM and the Cytotoxicity [2] was “++ (50% ≤ cytotoxicity < 85%)”. The Cytotoxicity ([3]; 2 day-treatment) was “++ (50% ≤ cytotoxicity < 85%)”, the Cytotoxicity ([3]; 4 day-treatment) was “+++ (cytotoxicity ≥ 85%)” and the IC50 ([3]; 48 h, 2 day-treatment) was 1 to 5 µM. The IC50 ([3]; 96 h, 4 day-treatment) was 1 to 5 µM, the IC50 ([4]; Mus musculus, 48 h) was < 1 µM and the Cytotoxicity [4] was “+++ (cytotoxicity ≥ 85%)”. The “migration in the scratch assay” value [5] was “inhibition of their migration”, the IC50 ([6]; Homo sapiens, HUVEC) was < 0.1 µM and the Angiogenesis inhibition [6] was “+++ (angiogenesis inhibition ≥ 80%)”. The IC50 ([7]; Homo sapiens, EOL1, 24 h) was 0.001 to 0.01 µM, the Cytotoxicity [7] was “+++ (cytotoxicity ≥ 85%)” and the colony growth [8] was “inhibition of colony growth”. The differentiation into myotubes [9] was “dose-dependent differentiation into myotubes”, the “Epithelial markers E-cadherin” value [10] was “↗” and the “Epithelial markers EpCAM” value [10] was “↗”. The “Mesenchymal markers Fibronectin” value [10] was “=” and the “Mesenchymal markers Vimentin” value [10] was “↘”.
